MIC data for 11 compounds are collected here from ChEMBL document CHEMBL4265897, “Discovery of benzothiazole amides as potent antimycobacterial agents” (Bioorg Med Chem Lett, 2018).

Each structure is given as a SMILES string. Converted amounts (≈) assume the structure as drawn.

For test [1], the system named is Mycolicibacterium peregrinum. The test can be described thus: Antimycobacterial activity against Mycobacterium peregrinum ATCC 700686 by CLSI method. It is filed as functional.
Test [2] concerns Mycolicibacterium fortuitum. As to the kind of experiment: Antimycobacterial activity against Mycobacterium fortuitum 41 by CLSI method. Format: functional.
For test [3], the system named is Mycobacteroides abscessus. As to the kind of experiment: Antimycobacterial activity against Mycobacterium abscessus 1 by CLSI method. Format: functional.
For test [4], the system named is Mycobacteroides abscessus. As to the kind of experiment: Antimycobacterial activity against Mycobacterium massiliense 119 by CLSI method. It is filed as functional, Mycobacterium abscessus subsp. massiliense.
Test [5] deals with Mycobacteroides abscessus. As to the kind of experiment: Antimycobacterial activity against Mycobacterium abscessus 21 by CLSI method. Format: functional.
The subject of test [6] is Mycobacteroides abscessus. The test can be described thus: Antimycobacterial activity against Mycobacterium abscessus 79 by CLSI method. It is filed as functional.
The subject of another test is Mycobacterium avium. As to the kind of experiment: Antimycobacterial activity against Mycobacterium avium 101 by CLSI method. It is filed as functional.
In test [7] the test system is Mycobacteroides abscessus. The test can be described thus: Antimycobacterial activity against Mycobacterium abscessus 103 by CLSI method. It is filed as functional.
Test [8] has as its system Mycobacterium intracellulare. The test can be described thus: Antimycobacterial activity against Mycobacterium intracellulare 1956 by CLSI method. Format: functional.
Another test deals with Mycobacteroides chelonae. As to the kind of experiment: Antimycobacterial activity against Mycobacterium chelonae 93 by CLSI method. Format: functional.
Test [9] deals with Mycobacterium tuberculosis. As to the kind of experiment: Antimycobacterial activity against Mycobacterium tuberculosis H37Rv MC2 6206 by CLSI method. It is filed as functional.

As to `Cc1cc(C)c2sc(NC(=O)C34CCCC(C)(CCC3)C4)nc2c1`, the MIC came out at 0.25 µg/mL (≈ 0.73 µM) in test [1]; 1 µg/mL (≈ 2.92 µM) in test [2]; 0.25 µg/mL (≈ 0.73 µM) in test [3]; 0.12 µg/mL (≈ 0.35 µM) in [4]; 0.12 µg/mL (≈ 0.35 µM) in [5]; 0.12 µg/mL (≈ 0.35 µM) in test [6]. Besides, the MIC against Mycobacterium avium turned out to be 8 µg/mL (≈ 23.4 µM); in test [7], 0.25 µg/mL (≈ 0.73 µM); in test [8], 8 µg/mL (≈ 23.4 µM); in the test with Mycobacteroides chelonae, 0.12 µg/mL (≈ 0.35 µM).

Take `CC12CCCC(C(=O)Nc3nc4c(F)cc(F)cc4s3)(CCC1)C2`: the MIC came to 0.06 µg/mL (≈ 0.171 µM) in test [1]; 0.25 µg/mL (≈ 0.713 µM) in test [2]; 0.12 µg/mL (≈ 0.342 µM) in test [4]; 0.12 µg/mL (≈ 0.342 µM) in test [5]; 0.12 µg/mL (≈ 0.342 µM) in test [6]; 4 µg/mL (≈ 11.4 µM) in the test with Mycobacterium avium. For the same compound, the MIC worked out at 0.25 µg/mL (≈ 0.713 µM) in test [7], 4 µg/mL (≈ 11.4 µM) in test [8] and 0.12 µg/mL (≈ 0.342 µM) against Mycobacteroides chelonae.

Turning to `CC1CC(C(=O)Nc2nc3ccc(C(F)(F)F)cc3s2)CC(C)(C)C1` (stereo unspecified), the MIC in test [1] worked out at 0.25 µg/mL (≈ 0.675 µM); in test [2], 0.5 µg/mL (≈ 1.35 µM); in test [3] it was 0.5 µg/mL (≈ 1.35 µM); in [4], 2 µg/mL (≈ 5.4 µM); in test [5] it was 0.5 µg/mL (≈ 1.35 µM); in test [6] it was 0.5 µg/mL (≈ 1.35 µM). Moreover, the MIC is greater than 64 µg/mL in the test on Mycobacterium avium, greater than 64 µg/mL in [8] and 0.25 µg/mL (≈ 0.675 µM) in the test on Mycobacteroides chelonae.

For the compound `CC1CC(C(=O)Nc2nc3cccc(F)c3s2)CC(C)(C)C1` (stereo unspecified), the minimum inhibitory concentration (MIC) in [1] was found to be 0.06 µg/mL (≈ 0.187 µM); in test [2], 0.12 µg/mL (≈ 0.374 µM); in [9], 1 µg/mL (≈ 3.12 µM); in test [3], 0.5 µg/mL (≈ 1.56 µM); in test [4], 0.25 µg/mL (≈ 0.78 µM); in test [5], 0.25 µg/mL (≈ 0.78 µM). In addition, the minimal inhibitory concentration (MIC) in [6] came to 0.25 µg/mL (≈ 0.78 µM); in the test with Mycobacterium avium, 8 µg/mL (≈ 25 µM); in test [7], 0.5 µg/mL (≈ 1.56 µM); in test [8], 16 µg/mL (≈ 49.9 µM); against Mycobacteroides chelonae it was 0.5 µg/mL (≈ 1.56 µM).

Take `CC1CC(C(=O)Nc2nc3ccc(OC(F)F)cc3s2)CC(C)(C)C1` (stereo unspecified): the MIC was determined as 0.12 µg/mL (≈ 0.326 µM) in test [1]; 0.5 µg/mL (≈ 1.36 µM) in [2]; 2 µg/mL (≈ 5.43 µM) in test [9]; 1 µg/mL (≈ 2.71 µM) in test [3]; 0.5 µg/mL (≈ 1.36 µM) in test [4]; 0.5 µg/mL (≈ 1.36 µM) in [5]. The MIC is 0.5 µg/mL (≈ 1.36 µM) in [6]; greater than 64 µg/mL in the test with Mycobacterium avium; 0.5 µg/mL (≈ 1.36 µM) in [7]; 8 µg/mL (≈ 21.7 µM) in [8]; 0.25 µg/mL (≈ 0.679 µM) against Mycobacteroides chelonae.

Turning to `CC1(C(=O)Nc2nc3ccc(OC(F)(F)F)cc3s2)CCCCC1`, the MIC in test [1] was found to be 0.5 µg/mL (≈ 1.4 µM); in test [2], 2 µg/mL (≈ 5.58 µM); in test [9], 4 µg/mL (≈ 11.2 µM); in [4], 0.12 µg/mL (≈ 0.335 µM); in test [5], 0.12 µg/mL (≈ 0.335 µM); in [6] it was 0.12 µg/mL (≈ 0.335 µM). Further, the MIC in the test on Mycobacterium avium is 8 µg/mL (≈ 22.3 µM); in test [7], 0.12 µg/mL (≈ 0.335 µM); in test [8], 4 µg/mL (≈ 11.2 µM); in the test on Mycobacteroides chelonae, 0.25 µg/mL (≈ 0.698 µM).

Regarding `CC1CCCC(C(=O)Nc2nc3ccc(C(F)(F)F)cc3s2)C1` (stereo unspecified), the MIC in test [1] was determined as 1 µg/mL (≈ 2.92 µM); in test [2] it was 2 µg/mL (≈ 5.84 µM); in test [9], 16 µg/mL (≈ 46.7 µM); in test [3], 4 µg/mL (≈ 11.7 µM); in [4] it was 2 µg/mL (≈ 5.84 µM); in test [5] it was 2 µg/mL (≈ 5.84 µM). The MIC in test [6] came to 2 µg/mL (≈ 5.84 µM); against Mycobacterium avium it was 16 µg/mL (≈ 46.7 µM); in [8] it was 16 µg/mL (≈ 46.7 µM); in the test on Mycobacteroides chelonae it was 1 µg/mL (≈ 2.92 µM).

Take `O=C(Nc1nc2ccc(OC(F)(F)F)cc2s1)C1CCCCCC1`: the MIC was greater than 64 µg/mL in test [1]; greater than 64 µg/mL in test [2]; 64 µg/mL (≈ 179 µM) in test [9]; greater than 64 µg/mL in [3]; greater than 64 µg/mL in test [4]; greater than 64 µg/mL in test [5]. In addition, the MIC in [6] is greater than 64 µg/mL; in the test with Mycobacterium avium, greater than 64 µg/mL; in [7] it was greater than 64 µg/mL; in [8] it was greater than 64 µg/mL; with Mycobacteroides chelonae, 32 µg/mL (≈ 89.3 µM).

For the compound `CC12CCCC(C(=O)Nc3nc4ccc(C(F)(F)F)cc4s3)(CCC1)C2`, the MIC in test [1] was determined as 0.12 µg/mL (≈ 0.314 µM); in [2] it was 0.5 µg/mL (≈ 1.31 µM); in [3], 0.5 µg/mL (≈ 1.31 µM); in test [4] it was 0.25 µg/mL (≈ 0.654 µM); in test [5], 0.25 µg/mL (≈ 0.654 µM); in [6] it was 0.25 µg/mL (≈ 0.654 µM). In addition, the MIC against Mycobacterium avium was greater than 8 µg/mL; in test [7], 0.12 µg/mL (≈ 0.314 µM); in test [8] it was 4 µg/mL (≈ 10.5 µM); in the test on Mycobacteroides chelonae it was 0.5 µg/mL (≈ 1.31 µM).

With `CC1CC(C(=O)Nc2nc3c(F)cccc3s2)CC(C)(C)C1` (stereo unspecified), the MIC in test [1] was 2 µg/mL (≈ 6.24 µM); in [2], 0.5 µg/mL (≈ 1.56 µM); in [9] it was 4 µg/mL (≈ 12.5 µM); in test [3], 2 µg/mL (≈ 6.24 µM); in test [4] it was 1 µg/mL (≈ 3.12 µM); in [5], 1 µg/mL (≈ 3.12 µM). Further, the MIC amounted to 2 µg/mL (≈ 6.24 µM) in test [6], 8 µg/mL (≈ 25 µM) against Mycobacterium avium, 8 µg/mL (≈ 25 µM) in [8] and 2 µg/mL (≈ 6.24 µM) against Mycobacteroides chelonae.

`Cc1cc(C)c2sc(NC(=O)C3CC(C)CC(C)(C)C3)nc2c1` (stereo unspecified): the MIC in test [1] was 0.25 µg/mL (≈ 0.756 µM); in test [2] it was 0.5 µg/mL (≈ 1.51 µM); in [3] it was 0.5 µg/mL (≈ 1.51 µM); in test [4], 0.5 µg/mL (≈ 1.51 µM); in test [5], 0.25 µg/mL (≈ 0.756 µM); in test [6], 0.25 µg/mL (≈ 0.756 µM). In addition, the MIC with Mycobacterium avium was greater than 64 µg/mL; in [7] it was 0.25 µg/mL (≈ 0.756 µM); in [8], greater than 64 µg/mL; with Mycobacteroides chelonae, 0.25 µg/mL (≈ 0.756 µM).

The term MIC denotes the lowest concentration that inhibits growth of the organism. Lower therefore signals greater potency.
